Reference: US11980596B2 (priority 2017, dated 2024)

Test system: subjects with MDD at imminent risk for suicide
[1] = esketamine 84 mg, double-blind phase, N = 35

Description: The study consisted of a screening evaluation performed within 24 hours (or up to 48 hours upon consultation with the Sponsor's medical monitor) prior to Day 1 dose, immediately followed by a 25-day double-blind treatment phase (Day 1 to 25) with twice a week dosing, and a 56-day follow up phase (Day 26 to Day 81). The study was designed as a POC study and therefore a two-sided 0.20 significance level was used.
Among 68 randomized subjects, 66 were included in the safety analysis set (defined as receiving at least one dose of study medication in the double-blind phase). […] All safety subjects (N=66) were included in the intent-to-treat (ITT) analysis set (defined as receiving at least one dose of study medication during the double-blind phase and having both the baseline and the Day 1, 4-hour postdose evaluation for the MADRS total score). Forty-nine subjects were included in the safety (FU) analysis set (defined as all subjects who have at least 1 visit during the follow up phase).

For `CN[C@]1(c2ccccc2Cl)CCCCC1=O` [esketamine, (S)-2-(2-chlorophenyl)-2-(methylamino)cyclohexanone], the “Discontinued from the double-blind phase due to (treatment-emergent) adverse events” value (84 mg) was 5 subjects, the “Subjects with a serious adverse event” value (84 mg group, follow up phase) was 1 subjects and the “TEAE: dissociation” value (84 mg, double-blind phase) was 31.4%. For the same compound, the “TEAE: dizziness” value (84 mg, double-blind phase) was 34.3%, the “TEAE: dysgeusia” value (84 mg, double-blind phase) was 31.4% and the “TEAE: headache” value (84 mg, double-blind phase) was 31.4%. For the same compound, the “TEAE: nausea” value (84 mg, double-blind phase) was 37.1%, the “TEAE: vomiting” value (84 mg, double-blind phase) was 20.0% and the “Withdrawn from double-blind phase: Adverse event” value (esketamine 84 mg, all randomized analysis set, N = 36) was 5 (13.9%) subjects (%). The “1 or more serious TEAE” value [1] was 4 (11.4%) subjects (%), the “Serious TEAE: Agitation” value [1] was 1 (2.9%) subjects (%) and the “Serious TEAE: Depressive symptom” value [1] was 1 (2.9%) subjects (%). For the same compound, the “Serious TEAE: Psychiatric disorders” value [1] was 4 (11.4%) subjects (%), the “Serious TEAE: Suicidal ideation” value [1] was 2 (5.7%) subjects (%) and the TEAE [1] was 33 (94.3%) subjects (%). For the same compound, the “TEAE Abdominal pain, no. subjects” value [1] was 0, the “TEAE Acne, % of subjects” value [1] was “(5.7%)” and the “TEAE Acne, no. subjects” value [1] was 2. The “TEAE Agitation, % of subjects” value [1] was “(8.6%)”, the “TEAE Agitation, no. subjects” value [1] was 3 and the “TEAE Anxiety, % of subjects” value [1] was “(17.1%)”. The “TEAE Anxiety, no. subjects” value [1] was 6, the “TEAE Blepharospasm, no. subjects” value [1] was 0 and the “TEAE Blood pressure increased, % of subjects” value [1] was “(5.7%)”. The “TEAE Blood pressure increased, no. subjects” value [1] was 2, the “TEAE Constipation, no. subjects” value [1] was 0 and the “TEAE Diarrhea, % of subjects” value [1] was “(8.6%)”. For the same compound, the “TEAE Diarrhea, no. subjects” value [1] was 3, the “TEAE Diplopia, % of subjects” value [1] was “(5.7%)” and the “TEAE Diplopia, no. subjects” value [1] was 2. For the same compound, the “TEAE Dissociation, % of subjects” value [1] was “(31.4%)”, the “TEAE Dissociation, no. subjects” value [1] was 11 and the “TEAE Dizziness postural, % of subjects” value [1] was “(5.7%)”. For the same compound, the “TEAE Dizziness postural, no. subjects” value [1] was 2, the “TEAE Dizziness, % of subjects” value [1] was “(34.3%)” and the “TEAE Dizziness, no. subjects” value [1] was 12. For the same compound, the “TEAE Dry mouth, % of subjects” value [1] was “(8.6%)”, the “TEAE Dry mouth, no. subjects” value [1] was 3 and the “TEAE Dysgeusia, % of subjects” value [1] was “(31.4%)”. For the same compound, the “TEAE Dysgeusia, no. subjects” value [1] was 11, the “TEAE Ear and labyrinth disorders, % of subjects” value [1] was “(25.7%)” and the “TEAE Ear and labyrinth disorders, no. subjects” value [1] was 9. The “TEAE Epistaxis, no. subjects” value [1] was 0, the “TEAE Euphoric mood, % of subjects” value [1] was “(11.4%)” and the “TEAE Euphoric mood, no. subjects” value [1] was 4. For the same compound, the “TEAE Eye disorders, % of subjects” value [1] was “(20.0%)”, the “TEAE Eye disorders, no. subjects” value [1] was 7 and the “TEAE Fatigue, % of subjects” value [1] was “(5.7%)”. The “TEAE Fatigue, no. subjects” value [1] was 2, the “TEAE Feeling abnormal, % of subjects” value [1] was “(8.6%)” and the “TEAE Feeling abnormal, no. subjects” value [1] was 3. For the same compound, the “TEAE Feeling cold, % of subjects” value [1] was “(5.7%)”, the “TEAE Feeling cold, no. subjects” value [1] was 2 and the “TEAE Flatulence, % of subjects” value [1] was “(2.9%)”. The “TEAE Flatulence, no. subjects” value [1] was 1, the “TEAE Gastrointestinal disorders, % of subjects” value [1] was “(54.3%)” and the “TEAE Gastrointestinal disorders, no. subjects” value [1] was 19. The “TEAE General disorders and administration site conditions, % of subjects” value [1] was “(28.6%)”, the “TEAE General disorders and administration site conditions, no. subjects” value [1] was 10 and the “TEAE Headache, % of subjects” value [1] was “(31.4%)”. The “TEAE Headache, no. subjects” value [1] was 11, the “TEAE Hyperacusis, % of subjects” value [1] was “(5.7%)” and the “TEAE Hyperacusis, no. subjects” value [1] was 2. For the same compound, the “TEAE Hyperhidrosis, % of subjects” value [1] was “(5.7%)”, the “TEAE Hyperhidrosis, no. subjects” value [1] was 2 and the “TEAE Hypoesthesia oral, % of subjects” value [1] was “(5.7%)”. The “TEAE Hypoesthesia oral, no. subjects” value [1] was 2, the “TEAE Hypoesthesia, % of subjects” value [1] was “(8.6%)” and the “TEAE Hypoesthesia, no. subjects” value [1] was 3. For the same compound, the “TEAE Infections and infestations, % of subjects” value [1] was “(2.9%)”, the “TEAE Infections and infestations, no. subjects” value [1] was 1 and the “TEAE Insomnia, % of subjects” value [1] was “(8.6%)”. The “TEAE Insomnia, no. subjects” value [1] was 3, the “TEAE Intranasal paranesthesia, no. subjects” value [1] was 0 and the “TEAE Investigations, % of subjects” value [1] was “(14.3%)”. For the same compound, the “TEAE Investigations, no. subjects” value [1] was 5, the “TEAE Nasal congestion, % of subjects” value [1] was “(2.9%)” and the “TEAE Nasal congestion, no. subjects” value [1] was 1. The “TEAE Nasal discomfort, % of subjects” value [1] was “(8.6%)”, the “TEAE Nasal discomfort, no. subjects” value [1] was 3 and the “TEAE Nausea, % of subjects” value [1] was “(37.1%)”. The “TEAE Nausea, no. subjects” value [1] was 13, the “TEAE Nervous system disorders, % of subjects” value [1] was “(71.4%)” and the “TEAE Nervous system disorders, no. subjects” value [1] was 25. The “TEAE Oropharyngeal pain, % of subjects” value [1] was “(5.7%)”, the “TEAE Oropharyngeal pain, no. subjects” value [1] was 2 and the “TEAE Panic attack, no. subjects” value [1] was 0. For the same compound, the “TEAE Paresthesia oral, % of subjects” value [1] was “(5.7%)”, the “TEAE Paresthesia oral, no. subjects” value [1] was 2 and the “TEAE Paresthesia, % of subjects” value [1] was “(17.1%)”. The “TEAE Paresthesia, no. subjects” value [1] was 6, the “TEAE Pharyngeal hypoesthesia, % of subjects” value [1] was “(5.7%)” and the “TEAE Pharyngeal hypoesthesia, no. subjects” value [1] was 2. The “TEAE Pollakiuria, no. subjects” value [1] was 0, the “TEAE Psychiatric disorders, % of subjects” value [1] was “(57.1%)” and the “TEAE Psychiatric disorders, no. subjects” value [1] was 20. For the same compound, the “TEAE Rash, % of subjects” value [1] was “(2.9%)”, the “TEAE Rash, no. subjects” value [1] was 1 and the “TEAE Renal and urinary disorders, % of subjects” value [1] was “(2.9%)”. The “TEAE Renal and urinary disorders, no. subjects” value [1] was 1, the “TEAE Respiratory, thoracic and mediastinal disorders, % of subjects” value [1] was “(25.7%)” and the “TEAE Respiratory, thoracic and mediastinal disorders, no. subjects” value [1] was 9. The “TEAE Rhinalgia, no. subjects” value [1] was 0, the “TEAE Rhinorrhoea, no. subjects” value [1] was 0 and the “TEAE Sedation, % of subjects” value [1] was “(17.1%)”. The “TEAE Sedation, no. subjects” value [1] was 6, the “TEAE Skin and subcutaneous tissue disorders, % of subjects” value [1] was “(14.3%)” and the “TEAE Skin and subcutaneous tissue disorders, no. subjects” value [1] was 5. For the same compound, the “TEAE Somnolence, % of subjects” value [1] was “(11.4%)”, the “TEAE Somnolence, no. subjects” value [1] was 4 and the “TEAE Suicidal ideation, % of subjects” value [1] was “(5.7%)”. For the same compound, the “TEAE Suicidal ideation, no. subjects” value [1] was 2, the “TEAE Throat irritation, % of subjects” value [1] was “(8.6%)” and the “TEAE Throat irritation, no. subjects” value [1] was 3. The “TEAE Tinnitus, % of subjects” value [1] was “(5.7%)”, the “TEAE Tinnitus, no. subjects” value [1] was 2 and the “TEAE Toothache, no. subjects” value [1] was 0. For the same compound, the “TEAE Upper respiratory tract infection, no. subjects” value [1] was 0, the “TEAE Vertigo, % of subjects” value [1] was “(11.4%)” and the “TEAE Vertigo, no. subjects” value [1] was 4. The “TEAE Vision blurred, % of subjects” value [1] was “(8.6%)”, the “TEAE Vision blurred, no. subjects” value [1] was 3 and the “TEAE Vomiting, % of subjects” value [1] was “(20.0%)”. For the same compound, the “TEAE Vomiting, no. subjects” value [1] was 7, the “TEAE Weight increased, % of subjects” value [1] was “(5.7%)” and the “TEAE Weight increased, no. subjects” value [1] was 2. The “TEAE leading to death” value [1] was 0 subjects (%), the “TEAE leading to drug withdrawn” value [1] was 5 (14.3%) subjects (%) and the “TEAE leading to study discontinuation: Aggression” value [1] was 1 (2.9%) subjects (%). For the same compound, the “TEAE leading to study discontinuation: Agitation” value [1] was 1 (2.9%) subjects (%), the “TEAE leading to study discontinuation: Cardiac disorders” value [1] was 1 (2.9%) subjects (%) and the “TEAE leading to study discontinuation: Dissociative disorder” value [1] was 0 subjects (%). For the same compound, the “TEAE leading to study discontinuation: Dizziness” value [1] was 1 (2.9%) subjects (%).
